Melting point data for 50 molecules are collected here from patent US7964531B2, “3-phenoxy-4-pyridazinol derivatives and herbicidal composition containing the same” (Mitsui Chemicals Agro, Inc., priority 2001, dated 2011).

The structures appear in SMILES notation. Structures can show the parent of a compound that is named as a salt.

As usually defined, the melting point is the temperature of the solid-liquid transition.

`Cc1ccccc1Oc1nnc(Br)cc1O` [Compound No. 2411, 6-Bromo-3-(2-methylphenoxy)-4-pyridazinol]: the melting point was in the range of 197 to 198 °C.
The same measure for `COc1ccc(C#N)cc1Oc1nnc(Cl)cc1O` [Compound No. 707, 3-[(6-Chloro-4-hydroxy-3-pyridazinyl)oxy]-4-methoxybenzonitrile]: 187 to 192 °C; for `CON(C)C(=O)Oc1cc(Cl)nnc1Oc1c(C)cccc1C1CC1`: 63 to 64.5 °C.
Molecule `Oc1cc(Cl)nnc1Oc1cccc2c1C1CC1C2` (centres unmarked) [Compound No. 515, 3-(1,1a,6,6a-Tetrahydrocyclopropa[a]inden-2-yloxy)-6-chloro-4-pyridazinol] had a melting point of 245 to 247 °C.
In turn, `Cc1cccc(C2CC2)c1Oc1nnc(Cl)cc1OC(=O)N(CCC#N)CCC#N` registered a melting point of 159 to 161 °C.
In turn, `CCCCCCc1ccccc1Oc1nnc(Cl)cc1O` [Compound No. 138, 6-Chloro-3-(2-hexylphenoxy)-4-pyridazinol] showed a melting point of 118 to 118.5 °C.
`COCC1(c2ccccc2Oc2nnc(Cl)cc2O)CC1` [Compound No. 163, 6-Chloro-3-{2-[1-(methoxymethyl)cyclopropyl]phenoxy}-4-pyridazinol] yielded a melting point of 187 to 190 °C.
For the molecule `Oc1cc(Cl)nnc1Oc1ccccc1-c1nc2ccccc2s1` [Compound No. 376, 3-[2-(1,3-Benzothiazol-2-yl)phenoxy]-6-chloro-4-pyridazinol], the melting point fell in the range of 215 to 217 °C.
Molecule `Cc1ccc2c(c1Oc1nnc(Cl)cc1O)OCC2` [Compound No. 1096, 6-Chloro-3-[(6-methyl-2,3-dihydro-1-benzofuran-7-yl)oxy]-4-pyridazinol] displayed a melting point of 217 to 219 °C.
`CC1(C)CC1c1ccccc1Oc1nnc(Cl)cc1O` (centres unmarked) [Compound No. 267, 6-Chloro-3-[2-(2,2-dimethylcyclopropyl)phenoxy]-4-pyridazinol] showed a melting point of 187 to 188 °C.
The same measure for `CC1(c2ccccc2Oc2nnc(Cl)cc2O)CC1` [Compound No. 144, 6-Chloro-3-[2-(1-methylcyclopropyl)phenoxy]-4-pyridazinol]: 196 to 198 °C; for `Cc1cc(O)c(Oc2ccccc2C(C)C)nn1` [Compound No. 2418, 3-(2-Isopropylphenoxy)-6-methyl-4-pyridazinol]: 259 to 260 °C; for `Oc1cc(Cl)nnc1Oc1c(Br)cccc1Br` [Compound No. 756, 6-Chloro-3-(2,6-dibromophenoxy)-4-pyridazinol]: 274 to 278 °C.
With `Cc1ccc(C2CC2)c(Oc2nnc(Cl)cc2O)c1` [Compound No. 662, 6-Chloro-3-(2-cyclopropyl-5-methylphenoxy)-4-pyridazinol], the melting point lay within 150 to 159 °C.
As to `Cc1c(F)ccc(C2CC2)c1Oc1nnc(Cl)cc1O` [Compound No. 1052, 6-Chloro-3-(6-cyclopropyl-3-fluoro-2-methylphenoxy)-4-pyridazinol], the melting point lay in the range of 230 to 231 °C.
In the case of `Oc1cc(Cl)nnc1Oc1cccc(Cl)c1Cl` [Compound No. 443, 6-Chloro-3-(2,3-dichlorophenoxy)-4-pyridazinol], the melting point lay in the range of 233 to 238 °C.
The same measure for `Oc1cccc(Oc2nnc(Cl)cc2O)c1` [Compound No. 2544, 6-Chloro-3-(3-hydroxyphenoxy)-4-pyridazinol]: 248 to 251 °C; for `Oc1cc(Cl)nnc1Oc1ccc(OCc2ccccc2)cc1` [Compound No. 2548, 3-[4-(Benzyloxy)phenoxy]-6-chloro-4-pyridazinol]: 170 to 180 °C; for `Oc1cc(Cl)nnc1Oc1cccc2c1CCO2` [Compound No. 528, 6-Chloro-3-(2,3-dihydro-1-benzofuran-4-yloxy)-4-pyridazinol]: 219 to 221 °C.
Regarding `C=CCc1cccc(CC=C)c1Oc1nnc(Cl)cc1O` [Compound No. 982, 6-Chloro-3-(2,6-diallylphenoxy)-4-pyridazinol], the melting point fell in the range of 131 to 135 °C.
Molecule `CC=Cc1ccccc1Oc1nnc(Cl)cc1O` [Compound No. 305, 6-Chloro-3-[2-(1-propenyl)phenoxy}-4-pyridazinol] had a melting point of 204 to 206 °C.
The same measure for `C#Cc1ccccc1Oc1nnc(Cl)cc1O` [Compound No. 308, 6-Chloro-3-(2-ethynylphenoxy)-4-pyridazinol]: 189 to 191 °C.
The same measure for `Oc1cc(Cl)nnc1Oc1cccc2c1CCC2` [Compound No. 506, 6-Chloro-3-(2,3-dihydro-1H-inden-4-yloxy)-4-pyridazinol]: 230 to 232 °C; for `COc1cccc(Oc2nnc(Cl)cc2O)c1` [Compound No. 425, 6-Chloro-3-(3-methoxyphenoxy)-4-pyridazinol]: 199 to 203 °C; for `C=CCc1c(OC)ccc(CC)c1Oc1nnc(Cl)cc1O` [Compound No. 1080, 3-(2-Allyl-6-ethyl-3-methoxyphenoxy)-6-chloro-4-pyridazinol]: 183 to 186 °C.
In turn, `Oc1cc(Cl)nnc1Oc1ccccc1CC1CC1` [Compound No. 311, 6-Chloro-3-[2-(cyclopropylmethyl)phenoxy]-4-pyridazinol] displayed a melting point of 165 to 168 °C.
Take `Cc1ccccc1Oc1nnc(Cl)cc1OS(=O)(=O)c1ccccc1` [Compound No. 2147, 6-Chloro-3-(2-methylphenoxy)-4-pyridazinyl benzenesulfonate]: the melting point was 91.5 to 92 °C.
The molecule `Cc1cccc(C2CC2)c1Oc1nnc(Cl)cc1OC(=O)C(C)(C)C` [Compound No. 1207, 6-Chloro-3-(2-cyclopropyl-6-methylphenoxy)-4-pyridazinyl pivalate] displayed a melting point of 84 to 87 °C.
The same measure for `Cc1ccc(S(=O)(=O)Oc2c(Cl)cnnc2Oc2ccccc2C)cc1` (as salt: benzene sulfonate) [Compound No. 66, 5-Chloro-3-(2-methylphenoxy)-4-pyridazinyl 4-methylbenzene sulfonate]: 140 to 143 °C; for `Cc1cc(F)ccc1Oc1nnc(Cl)cc1O` [Compound No. 557, 6-Chloro-3-(4-fluoro-2-methylphenoxy)-4-pyridazinol]: 249 to 250 °C.
In turn, `Cc1cccc(C2CC2)c1Oc1nnc(Cl)cc1OS(=O)(=O)C(F)(F)F` [Compound No. 2106, 6-Chloro-3-(2-cyclopropyl-6-methylphenoxy)-4-pyridazinyl trifluoromethanesulfonate] registered a melting point of 64 to 67 °C.
As for `Cc1cccc(C2CC2)c1Oc1nnc(Cl)cc1O`, the melting point fell in the range of 201 to 202 °C.
In turn, `Oc1cc(Cl)nnc1Oc1ccccc1OC(F)F` [Compound No. 390, 6-Chloro-3-[2-(difluoromethoxy)phenoxy]-4-pyridazinol] showed a melting point of 210 to 212 °C.
`Oc1cc(Cl)nnc1Oc1cccc(OCc2ccccc2)c1` [Compound No. 2547, 3-[3-(Benzyloxy)phenoxy]-6-chloro-4-pyridazinol] had a melting point of 184 to 185 °C.
Consider `C=C(C)C(=O)Oc1cc(Cl)nnc1Oc1c(C)cccc1C1CC1` [Compound No. 2677, 6-Chloro-3-(2-cyclopropyl-6-methylphenoxy)-4-pyridazinyl 2-methylacrylate], for which the melting point was in the range of 98 to 100 °C.
`Cc1ccccc1Oc1nnccc1O` [Compound No. 5, 3-(2-Methylphenoxy)-4-pyridazinol] had a melting point of 169 to 171 °C.
As to `COc1ccc(F)cc1Oc1nnc(Cl)cc1O` [Compound No. 700, 6-Chloro-3-(5-fluoro-2-methoxyphenoxy)-4-pyridazinol], the melting point was 187 to 191 °C.
`Oc1cc(Cl)nnc1Oc1cccc2occc12` [Compound No. 531, 3-(1-benzofuran-4-yloxy)-6-chloro-4-pyridazinol] returned a melting point of 220 to 225 °C.
`COc1ccc(C)cc1Oc1nnc(Cl)cc1O` [Compound No. 704, 6-Chloro-3-(2-methoxy-5-methylphenoxy)-4-pyridazinol] gave a melting point of 126 to 134 °C.
`COc1cccc(Oc2nnc(Cl)cc2OC(=O)c2ccccc2C)c1` [Compound No. 1458, 6-Chloro-3-(3-methoxyphenoxy)-4-pyridazinyl 2-methylbenzoate]: the melting point lay in the range of 66 to 67 °C.
The same measure for `O=C(O)C1(c2ccccc2Oc2nnc(Cl)cc2O)CCC1` [Compound No. 288, 1-{2-[(6-Chloro-4-hydroxy-3-pyridazinyl)oxy]phenyl}cyclobutanecarboxylic acid]: 173 to 175 °C; for `COc1ccc(Br)c(Oc2nnc(Cl)cc2O)c1C` [Compound No. 1066, 3-(6-Bromo-3-methoxy-2-methylphenoxy)-6-chloro-4-pyridazinol]: 246 to 253 °C.
Consider `Cc1cccc(Oc2nnc(Cl)cc2O)c1[N+](=O)[O-]` [Compound No. 498, 6-Chloro-3-(3-methyl-2-nitrophenoxy)-4-pyridazinol], for which the melting point is 191 to 200 °C.
Consider `Cc1cccc(Oc2nnc(Cl)cc2O)c1C` [Compound No. 456, 6-Chloro-3-(2,3-dimethylphenoxy)-4-pyridazinol], for which the melting point was 240 to 241 °C.
Take `Oc1cc(Cl)nnc1Oc1cccc(C2CC2)c1` [Compound No. 417, 6-Chloro-3-(3-cyclopropylphenoxy)-4-pyridazinol]: the melting point was in the range of 179 to 181 °C.
The same measure for `Oc1cc(Cl)nnc1Oc1cccc2c1OCO2` [Compound No. 544, 3-(1,3-Benzodioxol-4-yloxy)-6-chloro-4-pyridazinol]: 206 to 211 °C.
In the case of `CN(C)C(=O)Oc1cc(Cl)nnc1Oc1ccccc1C1CC1`, the melting point lay within 137 to 138 °C.
The molecule `Oc1cc(Cl)nnc1Oc1ccccc1C1CCCC1` [Compound No. 292, 6-Chloro-3-(2-cyclopentylphenoxy)-4-pyridazinol] showed a melting point of 178 to 180 °C.
`CN(C)C(=O)Oc1cc(Cl)nnc1Oc1cccc(C(F)(F)F)c1` displayed a melting point of 92 to 93 °C.
`Cc1cccc(C2CC2)c1Oc1nnc(Cl)cc1OC(=O)N1CCCC1` [Compound No. 1937, 6-Chloro-3-(2-cyclopropyl-6-methylphenoxy)-4-pyridazinyl 1-pyrrolidinecarboxylate] showed a melting point of 115 to 118 °C.
